Experimental findings from patent US20210038602A1, “COMBINATION TREATMENT OF ACUTE MYELOID LEUKEMIA” (Boehringer Ingelheim International GmbH, priority 2018, published 2021) are described below.

In the assay the test system is AML cell line MV-4-11B. In words: IncuCyte live cell imaging assay: cell growth (confluence) and apoptosis (Caspase-3/7 green fluorescence) over time. Particulars: MV-4-11B cells, single compound treatment, vs DMSO control. In kind it is cell-based. As for the experimental part: The analysis is done by the Essen BioScience IncuCyte™ FLR live cell imaging system. It enables observation and quantification of cell behavior over time by automatically gathering and analyzing images around the clock. This live-cell, non-perturbating imaging approach yields kinetic data, all generated within the controlled environment of a standard cell incubator.
MV-4-11B is the AML cell line MV-4-11 from ATCC (CRL-9591) which has achieved a mutation in TP53 (c.742C>T, p.R248W, heterozygous for TP53). MV-4-11B cells were grown in T-75 flasks using RPMI1640 medium supplemented with 10% fetal calf serum and 50 μM mercaptoethanol. Cultures were incubated at 37° C. and 5% CO2 in a humidified atmosphere.
For the IncuCyte live cell imaging assays, cells were plated in 96 well plates, Poly-D-Lysine coated, and were incubated with the respective compounds (BET inhibitor 1-12, volasertib), either alone or in combination. For the detection of apoptotic cells, the Essen BioSciences CellPlayer™ 96 well Kinetic Caspase-3/7 Reagent was added.
To determine cell proliferation, “confluence” (area covered with cells in the wells) was used as readout, to determine the amount of apoptosis (dead cells), the intensity of green fluorescence was used as readout.

Each structure is given as a SMILES string.

On to `CC[C@@H]1C(=O)N(C)c2cnc(Nc3ccc(C(=O)N[C@H]4CC[C@H](N5CCN(CC6CC6)CC5)CC4)cc3OC)nc2N1C(C)C` [volasertib, N-[trans-4-[4-(cyclopropylmethyl)-1-piperazinyl]cyclohexyl]-4-[[(7R)-7-ethyl-5,6,7,8-tetrahydro-5-methyl-8-(1-methylethyl)-6-oxo-2-pteridinyl]amino]-3-methoxy-benzamide], for which the “Cell growth (confluence)” value (over time (FIGS. 1-12 a)) is reported as “reduced in comparison to DMSO control treated cells”. Further, the “Apoptosis (Caspase-3/7 green fluorescence)” value (over time (FIGS. 1-12 b)) is recorded as “increased in comparison to DMSO control treated cells”.
